Laboratory results as given in ChEMBL document CHEMBL5370660, “Design of a Supersoft Topical JAK Inhibitor, Which Is Effective in Human Skin but Rapidly Deactivated in Blood” (J Med Chem, 2023).

Columns and labels:
[1] = Permeability of compound; type: ADME; conditions: not told; read-out: permeability
[2] = Stability in dermis human abdominal skin upto 2.5 % administered topically as ointment treated for 24 hrs followed by removal of ointment and stratum corneum and subsequently stimulated with IL-4/IL-13 measured after 3 hrs; type: ADME, tissue-based, Abdomen skin; conditions: topical_or_ocular, 27 h, route top
[3] = Stability of compound under light stress assessed as compound decomposition under sunlight with intensity of 4000 KJ/m2, irradiation of 250 W/m2, wavelength of >290 nm, temperature of 37 degreeC for 4 hrs using crystalline form of sample; type: ADME; conditions: read-out: Drug degradation
[4] = Drug penetration in fresh human skin explant using Franz diffusion cell model assessed as concentration of 2-(6-((5-carbamoyl-4-((2-methoxyphenyl)amino)pyridin-2-yl)amino)pyridin-3-yl)acetic acid metabolite in receiver fluid at 3 % administered topically preincubated overnight followed by fresh media replacement in receiver fluid without compound and subsequently stimulated with IL-4/IL-13 measured after 24 hrs by LC-MS/MS analysis; type: ADME, tissue-based, Skin of body; conditions: topical_or_ocular
[5] = Stability of compound in fresh human skin explant using Franz diffusion cell model assessed as compound concentration in dermis at 3 % administered topically preincubated overnight followed by fresh media replacement in receiver fluid without compound and subsequently stimulated with IL-4/IL-13 measured after 40 hrs by LC-MS/MS analysis; type: ADME, tissue-based, Skin of body; conditions: topical or ocular, read-out: Ct
[6] = target: T1, Eukaryotic translation initiation factor 2-alpha kinase 3 (Homo sapiens, UniProt Q9NZJ5); experiment: Inhibition of EIF2AK3 (unknown origin)
T1 sequence (Q9NZJ5 whole entry): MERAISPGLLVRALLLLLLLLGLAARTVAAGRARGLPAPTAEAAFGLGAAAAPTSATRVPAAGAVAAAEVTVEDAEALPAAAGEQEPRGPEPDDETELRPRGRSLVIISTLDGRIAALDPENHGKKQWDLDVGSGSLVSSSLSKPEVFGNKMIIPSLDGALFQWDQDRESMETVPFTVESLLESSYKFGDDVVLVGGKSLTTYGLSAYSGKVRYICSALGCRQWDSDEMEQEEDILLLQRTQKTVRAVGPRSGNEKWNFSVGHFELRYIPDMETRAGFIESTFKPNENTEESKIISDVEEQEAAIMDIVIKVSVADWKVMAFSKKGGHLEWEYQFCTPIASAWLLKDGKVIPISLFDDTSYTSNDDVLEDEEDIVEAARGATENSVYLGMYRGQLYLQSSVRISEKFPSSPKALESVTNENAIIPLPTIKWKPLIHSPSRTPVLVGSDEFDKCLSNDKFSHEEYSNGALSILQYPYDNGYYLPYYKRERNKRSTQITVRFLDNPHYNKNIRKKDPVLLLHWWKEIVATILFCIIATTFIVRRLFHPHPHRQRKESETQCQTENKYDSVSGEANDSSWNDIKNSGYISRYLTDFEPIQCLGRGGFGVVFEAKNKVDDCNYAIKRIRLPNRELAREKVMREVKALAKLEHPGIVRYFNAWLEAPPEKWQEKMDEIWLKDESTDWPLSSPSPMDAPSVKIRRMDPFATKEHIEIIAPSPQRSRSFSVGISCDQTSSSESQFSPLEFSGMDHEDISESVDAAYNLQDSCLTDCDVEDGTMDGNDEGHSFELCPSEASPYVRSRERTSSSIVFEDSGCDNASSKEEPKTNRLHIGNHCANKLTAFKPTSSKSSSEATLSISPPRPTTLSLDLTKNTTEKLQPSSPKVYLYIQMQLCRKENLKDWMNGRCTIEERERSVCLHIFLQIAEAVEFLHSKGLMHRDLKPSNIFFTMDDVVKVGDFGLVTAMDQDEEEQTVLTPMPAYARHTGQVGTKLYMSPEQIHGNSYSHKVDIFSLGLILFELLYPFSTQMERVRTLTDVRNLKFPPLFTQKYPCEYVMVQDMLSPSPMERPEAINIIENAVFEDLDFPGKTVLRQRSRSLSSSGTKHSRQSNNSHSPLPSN

[7] = Saturation solubility of compound in PEG400/transcutol/benzyl alcohol/water mixture using crystalline form of sample; type: physicochemical
[8] = Stability in human whole blood assessed as half life at 1 uM incubated upto 8 hrs by LC-MS/MS analysis; type: ADME, tissue-based
JAK3/JAK1 = JAK3/JAK1 (Homo sapiens, UniProt P23458+P52333); experiment: Inhibition of JAK1/3-mediated STAT5 phosphorylation in human whole blood incubated for 30 mins followed by IL-2 addition measured after 15 mins by flow cytometry; type: tissue-based
[9] = Lipophilicity, LogD of compound; type: physicochemical; conditions: octanol/water
JAK2/JAK1 = JAK2/JAK1 (Homo sapiens, UniProt O60674+P23458); experiment: Inhibition of JAK1/2-mediated STAT1 phosphorylation in human M07E cells preincubated for 30 mins followed by IFN-alpha stimulation measured after 15 mins by flow cytometry; type: cell-based
[10] = target: Tyrosine-protein kinase JAK2 (Homo sapiens, UniProt O60674); experiment: Inhibition of GST-fused JAK2 (808 to 1132 residues)(unknown origin) using Carboxyfluorescein-Ahx-GGEEEEYFELVKKKK peptide as substrate incubated for 30 mins in presence of ATP by caliper microfluidic mobility shift assay
Sequence of Tyrosine-protein kinase JAK2 (O60674 whole entry, the tested form may be a part): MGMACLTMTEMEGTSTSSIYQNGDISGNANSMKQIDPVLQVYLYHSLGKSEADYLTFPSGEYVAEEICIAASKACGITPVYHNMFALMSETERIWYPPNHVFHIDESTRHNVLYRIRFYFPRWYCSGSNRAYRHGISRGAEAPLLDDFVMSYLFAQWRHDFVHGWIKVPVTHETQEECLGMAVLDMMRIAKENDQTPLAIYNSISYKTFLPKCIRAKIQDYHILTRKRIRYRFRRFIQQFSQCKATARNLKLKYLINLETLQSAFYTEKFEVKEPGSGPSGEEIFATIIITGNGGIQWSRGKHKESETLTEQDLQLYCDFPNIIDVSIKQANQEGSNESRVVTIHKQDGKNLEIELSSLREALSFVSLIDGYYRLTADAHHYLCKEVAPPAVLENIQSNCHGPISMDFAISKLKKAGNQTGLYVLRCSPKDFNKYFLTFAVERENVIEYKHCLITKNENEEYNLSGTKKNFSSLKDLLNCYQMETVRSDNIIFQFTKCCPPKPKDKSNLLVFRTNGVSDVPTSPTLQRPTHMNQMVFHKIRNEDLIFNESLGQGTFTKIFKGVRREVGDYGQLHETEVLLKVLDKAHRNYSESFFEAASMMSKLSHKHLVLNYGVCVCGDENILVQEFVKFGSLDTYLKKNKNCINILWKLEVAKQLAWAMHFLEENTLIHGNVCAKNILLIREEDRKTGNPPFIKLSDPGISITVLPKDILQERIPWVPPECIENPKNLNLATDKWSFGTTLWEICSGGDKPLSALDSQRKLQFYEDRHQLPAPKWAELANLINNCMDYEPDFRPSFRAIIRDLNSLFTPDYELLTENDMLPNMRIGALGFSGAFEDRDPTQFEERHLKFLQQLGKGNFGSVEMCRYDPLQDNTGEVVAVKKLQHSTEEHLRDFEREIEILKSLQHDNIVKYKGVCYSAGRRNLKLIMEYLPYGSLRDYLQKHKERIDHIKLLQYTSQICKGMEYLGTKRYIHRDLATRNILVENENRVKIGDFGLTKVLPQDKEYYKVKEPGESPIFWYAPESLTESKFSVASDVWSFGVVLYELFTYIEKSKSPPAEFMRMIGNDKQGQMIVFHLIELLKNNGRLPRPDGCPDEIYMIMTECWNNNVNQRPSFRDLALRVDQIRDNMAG

Sequence of JAK3/JAK1 (P52333 whole entry): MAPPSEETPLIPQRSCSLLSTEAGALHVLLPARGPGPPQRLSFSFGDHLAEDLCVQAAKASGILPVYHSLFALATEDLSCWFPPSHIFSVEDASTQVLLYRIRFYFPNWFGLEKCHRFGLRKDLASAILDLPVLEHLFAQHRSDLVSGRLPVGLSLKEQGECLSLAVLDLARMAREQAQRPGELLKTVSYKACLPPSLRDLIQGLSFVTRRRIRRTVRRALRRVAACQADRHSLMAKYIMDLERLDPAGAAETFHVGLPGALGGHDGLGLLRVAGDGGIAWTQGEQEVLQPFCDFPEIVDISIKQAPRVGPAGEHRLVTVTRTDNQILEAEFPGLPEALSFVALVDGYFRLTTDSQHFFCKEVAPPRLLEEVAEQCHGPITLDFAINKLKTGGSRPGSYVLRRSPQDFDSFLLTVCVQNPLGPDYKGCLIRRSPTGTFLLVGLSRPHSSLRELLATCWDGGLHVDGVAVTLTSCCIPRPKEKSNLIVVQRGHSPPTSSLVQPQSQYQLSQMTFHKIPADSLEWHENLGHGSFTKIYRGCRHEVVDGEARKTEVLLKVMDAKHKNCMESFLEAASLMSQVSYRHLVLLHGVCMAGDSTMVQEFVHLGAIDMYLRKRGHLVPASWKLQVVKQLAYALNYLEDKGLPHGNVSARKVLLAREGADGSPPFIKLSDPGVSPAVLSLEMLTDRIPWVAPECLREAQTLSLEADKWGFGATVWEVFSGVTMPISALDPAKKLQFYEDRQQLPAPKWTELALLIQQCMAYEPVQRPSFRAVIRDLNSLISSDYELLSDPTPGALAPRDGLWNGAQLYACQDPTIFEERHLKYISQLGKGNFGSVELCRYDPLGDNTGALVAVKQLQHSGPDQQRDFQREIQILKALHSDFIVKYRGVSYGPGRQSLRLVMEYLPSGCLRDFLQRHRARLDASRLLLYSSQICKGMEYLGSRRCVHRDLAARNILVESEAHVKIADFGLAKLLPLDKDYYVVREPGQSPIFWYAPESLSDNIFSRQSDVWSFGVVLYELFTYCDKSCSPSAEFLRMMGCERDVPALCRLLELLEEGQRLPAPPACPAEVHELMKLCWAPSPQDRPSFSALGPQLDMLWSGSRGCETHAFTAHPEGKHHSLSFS
Sequence of JAK3/JAK1 (P23458 whole entry): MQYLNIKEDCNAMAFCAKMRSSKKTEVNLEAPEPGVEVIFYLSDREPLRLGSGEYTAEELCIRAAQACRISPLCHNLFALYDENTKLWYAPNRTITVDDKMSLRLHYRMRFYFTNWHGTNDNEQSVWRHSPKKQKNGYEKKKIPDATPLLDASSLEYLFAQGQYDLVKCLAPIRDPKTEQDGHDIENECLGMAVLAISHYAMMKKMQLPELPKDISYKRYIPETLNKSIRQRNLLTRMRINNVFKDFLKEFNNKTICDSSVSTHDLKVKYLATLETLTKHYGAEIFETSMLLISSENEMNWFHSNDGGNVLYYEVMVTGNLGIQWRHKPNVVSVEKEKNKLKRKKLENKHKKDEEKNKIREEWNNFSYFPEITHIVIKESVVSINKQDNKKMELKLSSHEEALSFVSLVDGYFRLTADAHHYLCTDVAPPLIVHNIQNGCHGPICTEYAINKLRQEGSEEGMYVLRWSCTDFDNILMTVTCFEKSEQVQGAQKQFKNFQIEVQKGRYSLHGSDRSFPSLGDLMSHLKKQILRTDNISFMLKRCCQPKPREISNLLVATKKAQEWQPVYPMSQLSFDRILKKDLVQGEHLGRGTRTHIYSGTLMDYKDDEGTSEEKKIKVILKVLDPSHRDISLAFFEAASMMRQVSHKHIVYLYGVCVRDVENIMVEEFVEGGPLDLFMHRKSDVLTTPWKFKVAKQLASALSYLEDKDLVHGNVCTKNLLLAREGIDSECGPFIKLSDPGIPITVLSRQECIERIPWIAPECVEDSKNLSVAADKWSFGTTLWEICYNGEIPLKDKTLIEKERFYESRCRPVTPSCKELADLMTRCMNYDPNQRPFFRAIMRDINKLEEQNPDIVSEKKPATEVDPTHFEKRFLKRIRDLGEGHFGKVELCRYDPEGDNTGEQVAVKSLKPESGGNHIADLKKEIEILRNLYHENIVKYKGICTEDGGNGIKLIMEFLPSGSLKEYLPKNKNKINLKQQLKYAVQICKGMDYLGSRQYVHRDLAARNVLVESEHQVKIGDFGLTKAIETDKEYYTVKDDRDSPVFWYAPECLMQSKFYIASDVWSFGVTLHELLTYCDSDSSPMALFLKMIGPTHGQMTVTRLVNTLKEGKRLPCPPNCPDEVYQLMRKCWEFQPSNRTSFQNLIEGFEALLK
Sequence of JAK2/JAK1 (P23458 whole entry, the tested form may be a part): as the sequence (P23458 whole entry) above
Sequence of JAK2/JAK1 (O60674 whole entry, the tested form may be a part): as the sequence (O60674 whole entry, the tested form may be a part) above

COC[C@@H](C)OC(=O)Cc1ccc(Nc2cc(Nc3ccccc3OC)c(C(N)=O)cn2)nc1
Papp [1]: 18 ×10⁻⁶ cm/s | Stability [2]: Stable | degraded at 4 h [3]: 0.1% | Drug uptake [4]: 0.223 µM | concentration at 40 h, 3 % [5]: 59 µM | IC50 [6]: < 100 nM | solubility thermodynamic [7]: > 18 mg/mL | half-life at 1 µM [8]: 6 min | IC50 (JAK3/JAK1): 14800 nM | logD [9]: 3.3 | IC50 (JAK2/JAK1): 45 nM | IC50 [10]: 5 nM
